{"source": "patent US20240050950A1", "about": "“GRADIENT-BASED MICROFLUIDIC CIRCUIT, DEVICE, AND METHOD FOR PERFORMING AN ASSAY” (priority 2020, published 2024)", "key": {"WT strain": {"tested_on": "WT strain", "settings": "reported elsewhere; cited from earlier work"}, "[1]": {"tested_on": "yrKHK S. cerevisiae yeast strain (DBY12549)", "format": "cell-based, Saccharomyces cerevisiae", "settings": "MVM2 platform", "procedure": "Yeast culture medium, strains, and growth. Yeast cell growth and standard laboratory manipulations were performed as described (Guthrie and Fink, “Guide to Yeast Genetics and Molecular and Cellular Biology,” Methods in Enzymol. Part C 351 Gulf Professional Publishing (2002), which is hereby incorporated by reference in its entirety). All media used was either minimal medium (YNB; 0.67% yeast nitrogen base without amino acids plus 2% indicated carbon sources) or rich medium (YP; 2% bacto peptone, 1% yeast extract, 2% indicated carbon sources). Additionally, for fluorescence microscopy, low-fluorescence medium was used (standard minimal medium with 2% glucose, except YNB is prepared without riboflavin or folic acid to reduce background fluorescence) (Sheff and Thorn, “Optimized Cassettes for Fluorescent Protein Tagging in Saccharomyces cerevisiae,” Yeast 21:661-670 (2004), which is hereby incorporated by reference in its entirety). The yeast strains used in this study were DBY12000 and DBY12549. DBY12000 is a wild-type yeast strain (i.e., WT) with a genotype of MATa prototrophic HAP1^+ derivative of FY4. DBY12549 or yrKHK is the mutant of the wild-type yeast strain, which is sensitive to fructose and has a genotype of MATa HAP1^+ can1Δ::TDH3pr-yrKHK.\nThen, as an example, the platform was used to study recessive human metabolic diseases, specifically measuring sugar-phosphate toxicity. […]. The data obtained using the MVM^2 platform precisely pinpointed the binary ‘Yes/No’ sensitivity response of the yrKHK strain to fructose (Yes) and glucose (No), as shown in FIGS. 35A-C and FIGS. 36A-C, respectively.\nIn this case, the functionality and validity of the MVM^2 platform was used to test for these known “eukaryote cells/sugars” pairs. Consequently, sugars (fructose and glucose) were chosen as the small molecules to show the feasibility of testing small molecules on eukaryotic cells in the MVM^2 platform. A wild-type S. cerevisiae, DBY12000, yeast strain (namely, WT) and its genetically modified DBY12549 mutant (called yrKHK) were chosen.. […]"}, "yrKHK strain": {"tested_on": "yrKHK strain", "settings": "reported elsewhere; cited from earlier work"}, "[2]": {"tested_on": "wild-type S. cerevisiae strain (DBY12000)", "experiment": "Sugar test in MVM2 platform, 10 h yeast culture", "format": "cell-based, Saccharomyces cerevisiae", "settings": "0.007-7%", "procedure": "Yeast culture medium, strains, and growth. Yeast cell growth and standard laboratory manipulations were performed as described (Guthrie and Fink, “Guide to Yeast Genetics and Molecular and Cellular Biology,” Methods in Enzymol. Part C 351 Gulf Professional Publishing (2002), which is hereby incorporated by reference in its entirety). All media used was either minimal medium (YNB; 0.67% yeast nitrogen base without amino acids plus 2% indicated carbon sources) or rich medium (YP; 2% bacto peptone, 1% yeast extract, 2% indicated carbon sources). Additionally, for fluorescence microscopy, low-fluorescence medium was used (standard minimal medium with 2% glucose, except YNB is prepared without riboflavin or folic acid to reduce background fluorescence) (Sheff and Thorn, “Optimized Cassettes for Fluorescent Protein Tagging in Saccharomyces cerevisiae,” Yeast 21:661-670 (2004), which is hereby incorporated by reference in its entirety). The yeast strains used in this study were DBY12000 and DBY12549. DBY12000 is a wild-type yeast strain (i.e., WT) with a genotype of MATa prototrophic HAP1^+ derivative of FY4. […]\nWild-type vs. Glucose (outcome: not sensitive): In FIGS. 37A-D and FIG. 38, the WT yeast strain exposed with glucose and fructose, respectively. The yeast growth was monitored for any “yeast/sugar” pair within 10 h culture at two time points (t=0 and 10 h). […]"}, "[3]": {"settings": "Table 3, antifungal drugs and other molecules; cited from earlier work"}}}
{"smiles": "O=C(CO)[C@@H](O)[C@H](O)[C@H](O)CO", "note": "[D-fructose]", "values": [{"measurement": "sensitivity/resistance", "setting": "WT strain", "value": "resistant"}, {"measurement": "binary Yes/No sensitivity response", "setting": "[1]; 0.007-7 wt %", "value": "Yes"}, {"measurement": "critical sensitivity concentration", "setting": "[1]; 10 h", "value": 1.13, "unit": "wt %"}, {"measurement": "concentration range within which yeast growth is stopped", "setting": "[1]; microchambers R8-R12, 10 h", "value": "0.7-1.113 wt %"}, {"measurement": "sensitivity/resistance", "setting": "yrKHK strain", "value": "sensitive"}, {"measurement": "outcome (sensitivity)", "setting": "[2]", "value": "not sensitive"}, {"measurement": "Molar volume", "setting": "[3]", "value": 113.3, "unit": "cm^3"}]}
